Assay results published in patent US11091496B2, “Opioid ketal compounds and uses thereof” (priority 2013, dated 2021).
Like-named read-outs stand apart in the source and are kept apart here. Marks after values point to notes of the source that are not given here.

How the values were obtained:
[1] = assay type: physicochemical; details: for extent of hydrolysis to hydrocodone in about 4 hours: FIG. 5, FIG. 6; for % hydrocodone, % Ketal in hydrolysis mixture: hydrocodone 1,3-propanediol ketal; for % hydrocodone, % Ketal in hydrolysis mixture / Hydrocodone, 2S,5S ketal in hydrolysis mixture / Hydrocodone, 2R,5R ketal in hydrolysis mixture: 1 mg/ml; for % Oxycodone, % IVA-IVD in hydrolysis mixture: total 1 mg/ml; for relative rate of hydrolysis: comparison of stereoisomers; for Hydrocodone, 2S,5S ketal in hydrolysis mixture: hydrocodone 2S,5S-hexanediol ketal tested separately; for Hydrocodone, 2R,5R ketal in hydrolysis mixture: hydrocodone 2R,5R-hexanediol ketal tested separately
[2] = 5% acetic acid 100° C.; for % Oxycodone, % IVA-IVD in hydrolysis mixture: unreacted oxycodone + four isomers of Formula IV, 1 mg/ml
[3] = Ketal hydrolysis at varying pH, buffers at 37° C.; details: 1 mg/ml; for hydrolysis of the ketal: 37° C.
[4] = mixture of isomers, 0.1 N HCl 37° C.

## COc1ccc2c3c1O[C@H]1C4(CCC5(O)[C@@H](C2)N(C)CC[C@]315)OCCC(C)O4 (stereo partly shown) [Formula V, oxycodone 1,3-butanediol ketal]
[1]; [4]
  time at which about 50% of the oxycodone is released: about 5 hours
  time by which about (almost) 90% oxycodone release occurs: ≤ 25 h
[2]; FIG. 12, FIG. 13
  time to almost completely hydrolyze to oxycodone: at least 4 hours
[2]; FIG. 13
  time to about 60% hydrolysis: about 1 hour

## COc1ccc2c3c1O[C@H]1C4(CCC5[C@@H](C2)N(C)CC[C@@]351)OCCCO4 (stereo partly shown) [Hydrocodone 1,3-propanediol ketal]
[1]; 0.1 N HCl 37° C.
  extent of hydrolysis to hydrocodone in about 4 hours: nearly complete hydrolysis
[1]; 0.1 N HCl 37° C., 0 h
  % hydrocodone, % Ketal in hydrolysis mixture: 93.1%
[1]; 0.1 N HCl 37° C., 0.57 h
  % hydrocodone, % Ketal in hydrolysis mixture: 65.7%
[1]; 0.1 N HCl 37° C., 1.25 h
  % hydrocodone, % Ketal in hydrolysis mixture: 52.3%
[1]; 0.1 N HCl 37° C., 2 h
  % hydrocodone, % Ketal in hydrolysis mixture: 41.8%
[1]; 0.1 N HCl 37° C., 3 h
  % hydrocodone, % Ketal in hydrolysis mixture: 32.8%
[1]; 0.1 N HCl 37° C., 4 h
  % hydrocodone, % Ketal in hydrolysis mixture: 25.6%

## COc1ccc2c3c1O[C@H]1[C@]4(CCC5(O)[C@@H](C2)N(C)CC[C@]315)O[C@H](C)C[C@H](C)O4 (stereo partly drawn) [IVA, oxycodone 2R,4S-pentanediol ketal]
[1]; 0.1 N HCl 37° C., 0 h
  % Oxycodone, % IVA-IVD in hydrolysis mixture: 24.7%
[1]; 0.1 N HCl 37° C., 0.583 h
  % Oxycodone, % IVA-IVD in hydrolysis mixture: 25.9%
[1]; 0.1 N HCl 37° C., 1.167 h
  % Oxycodone, % IVA-IVD in hydrolysis mixture: 25.6%
[1]; 0.1 N HCl 37° C., 1.75 h
  % Oxycodone, % IVA-IVD in hydrolysis mixture: 25%
[1]; 0.1 N HCl 37° C., 2.33 h
  % Oxycodone, % IVA-IVD in hydrolysis mixture: 25.9%
[1]; 0.1 N HCl 37° C., 2.92 h
  % Oxycodone, % IVA-IVD in hydrolysis mixture: 24.8%
[1]; 0.1 N HCl 37° C., 4 h
  % Oxycodone, % IVA-IVD in hydrolysis mixture: 23.7%
[1]; 0.1 N HCl 37° C., 6.5 h
  % Oxycodone, % IVA-IVD in hydrolysis mixture: 19.8%
[1]; 0.1 N HCl 37° C., 9.75 h
  % Oxycodone, % IVA-IVD in hydrolysis mixture: 15.6%
[1]; 0.1 N HCl 37° C., 13.75 h
  % Oxycodone, % IVA-IVD in hydrolysis mixture: 9.9%
[1]; 0.1 N HCl 37° C., 25 h
  % Oxycodone, % IVA-IVD in hydrolysis mixture: 4.3%
[2]; 0 h
  % Oxycodone, % IVA-IVD in hydrolysis mixture: 24%
[2]; 0.5 h
  % Oxycodone, % IVA-IVD in hydrolysis mixture: 21.1%
[2]; 1 h
  % Oxycodone, % IVA-IVD in hydrolysis mixture: 15.8%
[2]; 2 h
  % Oxycodone, % IVA-IVD in hydrolysis mixture: 6%
[2]; 4.35 h
  % Oxycodone, % IVA-IVD in hydrolysis mixture: 3.1%
[2]; 10 h
  % Oxycodone, % IVA-IVD in hydrolysis mixture: 0%

## COc1ccc2c3c1O[C@H]1[C@@]4(CCC5(O)[C@@H](C2)N(C)CC[C@]315)O[C@H](C)C[C@H](C)O4 (stereo partly drawn) [IVB, oxycodone 2S,4R-pentanediol ketal]
[1]; 0.1 N HCl 37° C., 0 h
  % Oxycodone, % IVA-IVD in hydrolysis mixture: 10.7%
[1]; 0.1 N HCl 37° C., 0.583 h
  % Oxycodone, % IVA-IVD in hydrolysis mixture: 10.6%
[1]; 0.1 N HCl 37° C., 1.167 h
  % Oxycodone, % IVA-IVD in hydrolysis mixture: 10.7%
[1]; 0.1 N HCl 37° C., 1.75 h
  % Oxycodone, % IVA-IVD in hydrolysis mixture: 7.8%
[1]; 0.1 N HCl 37° C., 2.33 h
  % Oxycodone, % IVA-IVD in hydrolysis mixture: 8.3%
[1]; 0.1 N HCl 37° C., 2.92 h
  % Oxycodone, % IVA-IVD in hydrolysis mixture: 8.7%
[1]; 0.1 N HCl 37° C., 4 h
  % Oxycodone, % IVA-IVD in hydrolysis mixture: 9.2%
[1]; 0.1 N HCl 37° C., 6.5 h
  % Oxycodone, % IVA-IVD in hydrolysis mixture: 10%
[1]; 0.1 N HCl 37° C., 9.75 h
  % Oxycodone, % IVA-IVD in hydrolysis mixture: 10.2%
[1]; 0.1 N HCl 37° C., 13.75 h
  % Oxycodone, % IVA-IVD in hydrolysis mixture: 10.4%
[1]; 0.1 N HCl 37° C., 25 h
  % Oxycodone, % IVA-IVD in hydrolysis mixture: 9.3%
[2]; 0 h
  % Oxycodone, % IVA-IVD in hydrolysis mixture: 10.9%
[2]; 0.5 h
  % Oxycodone, % IVA-IVD in hydrolysis mixture: 8.7%
[2]; 1 h
  % Oxycodone, % IVA-IVD in hydrolysis mixture: 9.7%
[2]; 2 h
  % Oxycodone, % IVA-IVD in hydrolysis mixture: 9.2%
[2]; 4.35 h
  % Oxycodone, % IVA-IVD in hydrolysis mixture: 9%
[2]; 10 h
  % Oxycodone, % IVA-IVD in hydrolysis mixture: 4.8%

## Hydrocodone 2R,4R-pentanediol ketal
[3]; pH 1, 0 h
  hydrolysis of the ketal: 0
[3]; pH 1, 0.33 h
  hydrolysis of the ketal: 50
[3]; pH 1, 1 h
  hydrolysis of the ketal: 90
[3]; pH 1, 2 h
  hydrolysis of the ketal: 99.8
[3]; pH 1, 4 h
  hydrolysis of the ketal: 100
[3]; pH 1.5, 0 h
  hydrolysis of the ketal: 0
[3]; pH 1.5, 0.33 h
  hydrolysis of the ketal: 30.6
[3]; pH 1.5, 1 h
  hydrolysis of the ketal: 59.4
[3]; pH 1.5, 2 h
  hydrolysis of the ketal: 85.1
[3]; pH 1.5, 4 h
  hydrolysis of the ketal: 98.2
[3]; pH 2, 0 h
  hydrolysis of the ketal: 0
[3]; pH 2, 0.33 h
  hydrolysis of the ketal: 8.3
[3]; pH 2, 1 h
  hydrolysis of the ketal: 21.9
[3]; pH 2, 2 h
  hydrolysis of the ketal: 37.7
[3]; pH 2, 4 h
  hydrolysis of the ketal: 58.2
[3]; pH 2.5, 0 h
  hydrolysis of the ketal: 0
[3]; pH 2.5, 0.33 h
  hydrolysis of the ketal: 0
[3]; pH 2.5, 1 h
  hydrolysis of the ketal: 0
[3]; pH 2.5, 2 h
  hydrolysis of the ketal: 15.9
[3]; pH 2.5, 4 h
  hydrolysis of the ketal: 26.4
[3]; pH 3, 0 h
  hydrolysis of the ketal: 0
[3]; pH 3, 0.33 h
  hydrolysis of the ketal: 0
[3]; pH 3, 1 h
  hydrolysis of the ketal: 0
[3]; pH 3, 2 h
  hydrolysis of the ketal: 5.9
[3]; pH 3, 4 h
  hydrolysis of the ketal: 12.7
[3]; pH 4, 4 h, estimated from longer hydrolysis times
  hydrolysis of the ketal: 1.3*
[3]; pH 5, 4 h, estimated from longer hydrolysis times
  hydrolysis of the ketal: 0.15*
[3]; pH 7, 4 h, estimated from longer hydrolysis times
  hydrolysis of the ketal: 0.01*
[3]; pH 12, 4 h, estimated from longer hydrolysis times
  hydrolysis of the ketal: 0.01*
[3]; pH buffers 37° C.
  pH at which hydrolysis of the ketal is fastest: fastest at pH 1

## Hydrocodone 2S,5S-hexanediol ketal [2S,5S ketal]
[1]
  relative rate of hydrolysis: hydrolyzes relatively slowly
[1]; 0.1 N HCl 37° C., 0 h
  Hydrocodone, 2S,5S ketal in hydrolysis mixture: 81.98
[1]; 0.1 N HCl 37° C., 0.5 h
  Hydrocodone, 2S,5S ketal in hydrolysis mixture: 52.18
[1]; 0.1 N HCl 37° C., 1.25 h
  Hydrocodone, 2S,5S ketal in hydrolysis mixture: 35.11
[1]; 0.1 N HCl 37° C., 2 h
  Hydrocodone, 2S,5S ketal in hydrolysis mixture: 10.19
[1]; 0.1 N HCl 37° C., 3 h
  Hydrocodone, 2S,5S ketal in hydrolysis mixture: 4.29
[1]; 0.1 N HCl 37° C., 4 h
  Hydrocodone, 2S,5S ketal in hydrolysis mixture: 2

## hydrocodone 2,5-hexanediol ketal
[1]; 0.1 N HCl 37° C.
  extent of hydrolysis to hydrocodone in about 4 hours: nearly complete hydrolysis

## hydrocodone 2R,5R-hexanediol ketal [2R,5R ketal]
[1]
  relative rate of hydrolysis: hydrolyzes relatively quickly
[1]; 0.1 N HCl 37° C., 0 h
  Hydrocodone, 2R,5R ketal in hydrolysis mixture: 73.88
[1]; 0.1 N HCl 37° C., 0.5 h
  Hydrocodone, 2R,5R ketal in hydrolysis mixture: 34.6
[1]; 0.1 N HCl 37° C., 1.25 h
  Hydrocodone, 2R,5R ketal in hydrolysis mixture: 11.37
[1]; 0.1 N HCl 37° C., 2 h
  Hydrocodone, 2R,5R ketal in hydrolysis mixture: 2.67
[1]; 0.1 N HCl 37° C., 3 h
  Hydrocodone, 2R,5R ketal in hydrolysis mixture: 0
[1]; 0.1 N HCl 37° C., 4 h
  Hydrocodone, 2R,5R ketal in hydrolysis mixture: 0

## oxycodone cis 1,2-cyclohexanedimethanol ketals
[1]; 0.1 N HCl 37° C., within five hours, FIG. 4
  proportion of oxycodone in the mixture: increased from about 30% to about 55%
